Results as given in patent publication US5510371A, “Inhibitors of farnesyl-protein transferase” (Merck & Co., Inc., priority 1994, dated 1996).

Biological target: T1, human recombinant farnesyl-protein transferase (Homo sapiens, UniProt P49354+P49356)
T1 construct: made in house; host or cells: Escherichia coli
Experiment: In vitro inhibition of ras farnesyl transferase
Type: biochemical
Settings: 50 nM 3H-FPP, 0.1 μM ras-CVIM, 2 μg human recombinant FPTase, pH 7.5, 30 minutes at 31° C.; read-out: LC50 (nM) (IC50: concentration of the test compound which gives 50% inhibition of FPTase)
Description: In vitro inhibition of ras farnesyl transferase
Human FPTase was expressed in Escherichia coli and then the recombinant protein was purified as described by Omer, et al., Biochemistry 32, 5167 (1993). The assay was performed in a volume of 100 μl containing 100 mM N-(2-hydroxy ethyl) piperazine-N'-(2-ethane sulfonic acid) (HEPES), pH 7.5, 5 mM MgCl2, 5 mM dithiothreitol (DTT), 10 μM ZnCl2, 0.1% (w/v) polyethylene glycol 20,000, 50 nM 3H!-Farnesyl Pyrophosphate ( 3H!-FPP, […], NEN-DuPont), 0.1 μM ras-CVIM and 2 μg of human recombinant farnesyl-protein transferase. The assay was run in the presence of the compound(s) for 30 minutes at 31° C. and then quenched by placing the tubes in an ice bath for 5 minutes. Trichloracetic acid (TCA, 0.1 ml of 30% (v/v) in ethanol followed by 50 μl of 0.25% (w/v) Bovine Serum Albumin in water was added to the tubes, vortexed for 5 minutes then placed in a 37° C. water bath for 30 minutes to facilitate the hydrolysis of the unused farnesyl pyrophosphate. The precipitate was collected on a Packard double thickness filtermat, using a Tomtec Mach II Cell Harvester and washed with 8 ml of 100% Ethanol. The filtermats were dried in a microwave oven and counted in a LKB Betaplate counter. The compounds were dissolved in dimethyl sulfoxide and were diluted 20-fold into the assay.
Inhibition of RAS farnesylation by compounds of this invention* […]

T1 sequence (P49356 whole entry, one chain of several): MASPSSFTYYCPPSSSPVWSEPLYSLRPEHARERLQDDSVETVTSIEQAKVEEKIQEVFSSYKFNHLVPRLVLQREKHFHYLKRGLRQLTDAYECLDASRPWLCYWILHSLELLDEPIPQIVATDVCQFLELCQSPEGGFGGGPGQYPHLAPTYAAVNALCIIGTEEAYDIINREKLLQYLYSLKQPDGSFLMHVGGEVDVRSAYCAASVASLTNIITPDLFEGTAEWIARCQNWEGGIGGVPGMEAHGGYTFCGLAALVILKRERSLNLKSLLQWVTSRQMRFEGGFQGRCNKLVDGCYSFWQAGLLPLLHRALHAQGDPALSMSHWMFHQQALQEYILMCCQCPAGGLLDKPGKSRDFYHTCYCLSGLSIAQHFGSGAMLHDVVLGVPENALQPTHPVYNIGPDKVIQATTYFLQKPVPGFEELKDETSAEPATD

**Q.** For `CCC(CC(C)C(=O)O)C(=O)CCC1=CC(C)CC(C)=CC(C)C(O)C(C)CCC(CCCCC=CC(C)CCC(C)OC(=O)CC(CC(=O)O)C(=O)O)OC(=O)CC(C(=O)O)CC(=O)OC1` (stereo not shown) [Compound 1, 1,2,3-propanetricarboxylic acid 1-10-4-carboxy 19-(6-carboxy-4-ethyl-3-oxoheptyl)-12-hydroxy-11,13,15,17-tetramethyl-2,6-dioxo-1,7-dioxacycloeiocosa-14,18-dien-8-yl!-1,4-dimethyl-5-decenyl! ester], which IC50 is on record?
**A.** 230 nM
